In ChEMBL document CHEMBL4837195, “Palladium-mediated synthesis and biological evaluation of C-10b substituted Dihydropyrrolo[1,2-b]isoquinolines as antileishmanial agents” (Eur J Med Chem, 2021):

Tests used:
[1] = Selectivity index, ratio of CC50 for mouse J774 cells to IC50 for antileishmanial activity against Leishmania […] MHOM/IN/80/DD8 amastigotes by resazurin dye based assay; type: toxicity; settings: read-out: Selectivity Index
[2] = tested on: Leishmania amazonensis; experiment: Antileishmanial activity against Leishmania […] MHOM/IN/80/DD8 amastigotes infected in mouse J774 cells assessed as reduction in parasites for 48 hrs by resazurin dye based assay; type: functional, organism-based; settings: MHOM/IN/80/DD8, J774, 48 h
[3] = tested on: Leishmania donovani; experiment: Antileishmanial activity against Leishmania donovani MHOM/Br/79/Maria promastigotes assessed as reduction in parasites for 48 hrs by resazurin dye based assay; type: functional, organism-based
[4] = Selectivity index, ratio of CC50 for mouse J774 cells to IC50 for antileishmanial activity against Leishmania donovani MHOM/Br/79/Maria promastigotes by resazurin dye based assay; type: toxicity; settings: read-out: Selectivity Index
[5] = Selectivity index, ratio of CC50 for mouse J774 cells to IC50 for antileishmanial activity against Leishmania donovani MHOM/Br/79/Maria amastigotes by resazurin dye based assay; type: toxicity; settings: read-out: Selectivity Index
[6] = tested on: Leishmania amazonensis; experiment: Antileishmanial activity against Leishmania […] MHOM/IN/80/DD8 promastigotes assessed as reduction in parasites for 48 hrs by resazurin dye based assay; type: functional, organism-based; settings: MHOM/IN/80/DD8, 48 h
[7] = tested on: Leishmania donovani; experiment: Antileishmanial activity against Leishmania donovani MHOM/Br/79/Maria amastigotes infected in mouse J774 cells assessed as reduction in parasites for 48 hrs by resazurin dye based assay; type: functional, organism-based; settings: J774, 48 h
[8] = Selectivity index, ratio of CC50 for mouse J774 cells to IC50 for antileishmanial activity against Leishmania […] MHOM/IN/80/DD8 promastigotes by resazurin dye based assay; type: toxicity; settings: read-out: Selectivity Index
[9] = tested on: J774; experiment: Cytotoxicity against mouse J774 cells assessed as reduction in cell viability after 24 hrs by resazurin dye based assay; type: functional

SMILES | selectivity ratio [1] | IC50 [2] [µM] | IC50 [3] [µM] | selectivity ratio [4] | selectivity ratio [5] | IC50 [6] [µM] | IC50 [7] [µM] | selectivity ratio [8] | CC50 [9] [µM]
COc1cc2c(cc1OC)C(C)(Cc1ccccc1)c1cccn1C2 (stereo not drawn) | > 8.93 | 33.6 | 30.3 | > 10.1 | > 5.45 | 17.1 | 55 | > 17.5 | ≥ 300
COc1ccc2c(c1OC)Cn1cccc1C2(C)CC#N (stereo not drawn) |  |  |  |  |  | 171 |  | > 2.07 | ≥ 354
CC1(CC#N)c2cc3c(cc2Cn2cccc21)OCO3 (stereo not drawn) |  |  | 120 | > 3.13 |  | 77.4 |  | > 4.85 | ≥ 376
COc1cc2c(cc1OC)C(C)(C/C=C/c1ccccc1)c1cccn1C2 (stereo not drawn) | > 4.02 | 69.3 | 33.7 | > 8.27 | > 16.6 | 12.2 | 16.7 | > 23 | ≥ 278
C=CCC1(C)c2cc(OC)c(OC)cc2Cn2cccc21 (stereo not drawn) | > 8.1 | 43.5 | 124 | > 2.84 | > 1.38 | 23.3 | 256 | > 15.2 | ≥ 353
COc1ccc(CC2(C)c3cc(OC)c(OC)cc3Cn3cccc32)cc1 (stereo not drawn) | > 5.34 | 51.6 | 47.4 | > 5.8 | > 6.12 | 26.4 | 45 | > 10.4 | ≥ 275
COc1cc2c(cc1OC)C(Cc1ccc([N+](=O)[O-])cc1)(C(F)(F)F)c1cccn1C2 (stereo not drawn) | > 4.08 | 56.7 | 16.4 | > 14.1 | > 10.4 | 3.93 | 22.2 | > 58.8 | ≥ 231
COc1cc2c(cc1OC)C(C)(CC#N)c1cccn1C2 (stereo not drawn) |  |  | 226 | > 1.57 |  | 309 |  | > 1.14 | ≥ 354
COc1ccc(CC2(C)c3cc(OC)c(OC)cc3Cn3cccc32)cc1OC (stereo not drawn) | > 4.18 | 60.8 | 38.3 | > 6.63 | > 5.49 | 3.3 | 46.3 | > 77 | ≥ 254
CC1(Cc2ccc([N+](=O)[O-])cc2)c2ccccc2Cn2cccc21 (stereo not drawn) |  |  | 159 | > 1.97 |  | 157 |  | > 2 | ≥ 314
CC1(Cc2ccc([N+](=O)[O-])cc2)c2cc3c(cc2Cn2cccc21)OCO3 (stereo not drawn) | > 3.58 | 77.1 | 30.4 | > 9.09 | > 4.02 | 8 | 68.7 | > 34.5 | ≥ 276
CC1(CC#N)c2ccc(OCc3ccccc3)cc2Cn2cccc21 (stereo not drawn) |  |  | 60.2 | 3.69 | 4.97 | 15.8 | 44.8 | 14 | 222
COc1ccc2c(c1)Cn1cccc1C2(C)CC#N (stereo not drawn) |  |  | 360 | > 1.1 |  | 123 |  | > 3.21 | ≥ 396
COc1cc2c(cc1OC)C(C)(Cc1ccc([N+](=O)[O-])cc1)c1cccn1C2 (stereo not drawn) | > 4.7 | 56.1 | 79.9 | > 3.31 | > 8.92 | 18 | 29.6 | > 14.7 | ≥ 264
COc1cc2c(cc1OCc1ccccc1)Cn1cccc1C2(C)CC#N (stereo not drawn) |  |  | 34.4 | 5.68 |  | 24.8 |  | 7.86 | 195
COc1ccc(OC)c2c1Cn1cccc1C2(C)CC#N (stereo not drawn) |  |  |  |  |  | 93.9 |  | > 3.77 | ≥ 354
CCCCCCCCCCCCCCCCOP(=O)([O-])OCC[N+](C)(C)C [MILTEFOSINE] | 2.85 | 47.6 |  | 906 | 369 | 30.7 | 0.37 | 4.43 | 136
CC1(CC#N)c2ccc(F)cc2Cn2cccc21 (stereo not drawn) |  |  | 192 | > 2.17 |  | 96.5 |  | > 4.31 | ≥ 416
COc1cc2c(cc1OC)C(C)(Cc1cc(C(F)(F)F)cc(C(F)(F)F)c1)c1cccn1C2 (stereo not drawn) |  |  | 111 | 0.42 |  | 39.6 |  | 1.18 | 46.8
COc1cc2c(cc1OC)C(C)(Cc1cc3ccc4cccc5ccc(c1)c3c45)c1cccn1C2 (stereo not drawn) |  |  | 86 | > 2.54 |  | 36.7 |  | > 5.95 | ≥ 219
